Laboratory results published in patent publication US10294248B2, “Beta-lactamase inhibitors” (VenatoRx Pharmaceuticals, Inc., priority 2013, dated 2019).

Tests used:
[1] = test system: P. aeruginosa Ps296 expressing VIM-2; assay: Broth microdilution MIC, P. aeruginosa Ps296 VIM-2; type: cell-based; conditions: fixed 4 μg/mL meropenem; CAMHB, 16-20 hours at 37° C.
Summary of the method: (§1)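 CAMHB, CLSI broth microdilution; strains pre-grown 3-5 h. Compound 32–0.25 μg/ml (2-fold series) + fixed β-lactam 4 μg/ml overlay. 37° C, 16-20 h; MIC scored by eye.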

[2] = target: T1, SHV-5 β-lactamase (Class A ESBL) (Klebsiella pneumoniae, UniProt P0A3M1); assay: β-Lactamase inhibition, SHV-5; type: biochemical
T1 construct: made in house; host or cells: E. coli BL21(DE3)
Summary of the method: (§2)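 IC50 is the inhibitor level cutting initial substrate hydrolysis rate by 50% relative to no-inhibitor controls, after 15 min enzyme–inhibitor preincubation at 37 °C. KPC-2 read with imipenem at 300 nm, SHV-5 with cefotaxime at 260 nm; enzymes were untagged, E. coli-expressed, chromatographically purified.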

[3] = target: T2, p99 AmpC β-lactamase (Class C) (Enterobacter cloacae, UniProt P05364); assay: β-Lactamase inhibition, p99 AmpC; type: biochemical
T2 construct: made in house; host or cells: E. coli BL21(DE3)

[4] = test system: K. pneumoniae 156319 expressing KPC-3; assay: Broth microdilution MIC, K. pneumoniae 156319 KPC-3; type: cell-based; conditions: fixed 4 μg/mL meropenem; CAMHB, 16-20 hours at 37° C.
Summary of the method: as §1

[5] = target: T3, VIM-2 metallo-β-lactamase (Class B) (Pseudomonas aeruginosa, UniProt Q9K2N0); assay: β-Lactamase inhibition, VIM-2; type: biochemical; conditions: nitrocefin 100 μM, 486 nm; 15 min preincubation at 37° C., PBS pH 7.4
T3 construct: made in house; host or cells: E. coli BL21(DE3)
Summary of the method: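 Enzyme + inhibitor, 37 °C, 15 min; nitrocefin 100 μM final; A486 read for 10 min. % inhibition vs no-inhibitor wells per concentration; IC50 = concentration halving initial hydrolysis rate.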

[6] = test system: E. cloacae 144200 expressing Class C P99 AmpC; assay: Broth microdilution MIC, E. cloacae 144200 p99 AmpC; type: cell-based; conditions: fixed 4 μg/mL ceftazidime; CAMHB, 16-20 hours at 37° C.
Summary of the method: as §1

[7] = test system: E. coli ESBL4 expressing CTX-M-15; assay: Broth microdilution MIC, E. coli ESBL4 CTX-M-15; type: cell-based; conditions: fixed 4 μg/mL ceftazidime; CAMHB, 16-20 hours at 37° C.
Summary of the method: as §1

[8] = test system: S. aureus MSSA-7 producing penicillinase PC-1; assay: Broth microdilution MIC, S. aureus MSSA-7 PC-1; type: cell-based; conditions: fixed 4 μg/mL piperacillin; CAMHB, 16-20 hours at 37° C.
Summary of the method: as §1

[9] = target: T4, KPC-2 β-lactamase (Class A carbapenemase) (Klebsiella pneumoniae, UniProt Q9F663); assay: β-Lactamase inhibition, KPC-2; type: biochemical; conditions: imipenem substrate, 300 nm; 15 min preincubation at 37° C., PBS pH 7.4
T4 construct: made in house; host or cells: E. coli BL21(DE3)
Summary of the method: as §2

[10] = test system: K. pneumoniae A-1797 expressing KPC-2 and VIM-4; assay: Broth microdilution MIC, K. pneumoniae A-1797 KPC-2/VIM-4; type: cell-based; conditions: fixed 4 μg/mL meropenem; CAMHB, 16-20 hours at 37° C.
Summary of the method: as §1

[11] = target: T5, OXA-1 β-lactamase (Class D oxacillinase) (Escherichia coli, UniProt P13661); assay: β-Lactamase inhibition, OXA-1; type: biochemical; conditions: nitrocefin 100 μM, 486 nm; 15 min preincubation at 37° C., PBS pH 7.4
T5 construct: made in house; host or cells: E. coli BL21(DE3)
Summary of the method: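 Compounds are mixed with purified, untagged recombinant β-lactamase and held 15 min at 37 °C. Substrate is then added: nitrocefin (100 μM final) for OXA-1, imipenem for KPC-2, cefotaxime for SHV-5. Absorbance is followed immediately, and percent inhibition per concentration gives the IC50.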

T1 sequence (P0A3M1 22-286): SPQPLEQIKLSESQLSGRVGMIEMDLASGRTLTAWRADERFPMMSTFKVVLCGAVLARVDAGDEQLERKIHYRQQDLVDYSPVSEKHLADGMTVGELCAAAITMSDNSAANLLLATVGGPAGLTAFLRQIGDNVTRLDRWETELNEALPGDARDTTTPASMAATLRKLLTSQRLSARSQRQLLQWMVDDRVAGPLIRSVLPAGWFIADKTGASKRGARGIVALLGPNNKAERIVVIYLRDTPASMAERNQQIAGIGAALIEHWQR
T4 sequence (Q9F663 25-293, looked up): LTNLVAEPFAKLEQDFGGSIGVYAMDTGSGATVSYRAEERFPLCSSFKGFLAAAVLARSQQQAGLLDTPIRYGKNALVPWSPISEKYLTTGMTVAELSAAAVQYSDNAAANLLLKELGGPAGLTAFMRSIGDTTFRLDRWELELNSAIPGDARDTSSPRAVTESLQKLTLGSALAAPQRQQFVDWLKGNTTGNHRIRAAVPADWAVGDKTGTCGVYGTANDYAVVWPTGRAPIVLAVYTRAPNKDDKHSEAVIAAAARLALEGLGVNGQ
T2 sequence (P05364 21-381): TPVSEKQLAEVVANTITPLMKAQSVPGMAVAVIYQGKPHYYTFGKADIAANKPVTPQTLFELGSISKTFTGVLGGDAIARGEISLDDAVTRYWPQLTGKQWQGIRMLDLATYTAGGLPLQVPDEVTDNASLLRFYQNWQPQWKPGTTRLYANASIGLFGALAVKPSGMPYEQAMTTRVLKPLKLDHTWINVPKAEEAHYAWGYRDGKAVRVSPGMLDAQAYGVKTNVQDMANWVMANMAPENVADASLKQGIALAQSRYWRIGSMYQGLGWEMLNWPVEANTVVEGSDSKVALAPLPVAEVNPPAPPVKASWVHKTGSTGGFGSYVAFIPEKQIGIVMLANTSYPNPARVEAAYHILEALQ
T5 sequence (P13661 26-276): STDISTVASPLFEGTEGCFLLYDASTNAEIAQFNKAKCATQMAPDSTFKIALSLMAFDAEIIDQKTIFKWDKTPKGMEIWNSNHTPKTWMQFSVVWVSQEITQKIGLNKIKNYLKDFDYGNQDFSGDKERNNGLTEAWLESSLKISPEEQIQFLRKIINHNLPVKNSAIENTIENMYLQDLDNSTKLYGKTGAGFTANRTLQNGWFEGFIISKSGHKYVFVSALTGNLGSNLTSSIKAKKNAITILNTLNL

| SMILES | MIC of example compound in presence of fixed β-lactam: Fixed Mero, P. aerug. Ps296 VIM-2 [1] | IC50 [2] | IC50 [3] | MIC of example compound in presence of fixed β-lactam: Fixed Mero, K. P. 156319 KPC-3 [4] | IC50 [5] | MIC of example compound in presence of fixed β-lactam: Fixed CAZ, E. cl. 144200 p99 AmpC [6] | MIC of example compound in presence of fixed β-lactam: Fixed CAZ, E. coli ESBL4 CTX-M-15 [7] | MIC of example compound in presence of fixed β-lactam: Fixed Pip, S. aureus MSSA-7 PC-1 [8] | IC50 [9] | MIC of example compound in presence of fixed β-lactam: Fixed Mero, K. P. A-1797 KPC-2 VIM-4 [10] | IC50 [11] |
| --- | --- | --- | --- | --- | --- | --- | --- | --- | --- | --- | --- |
| O=C(CN1CCCNCC1)N[C@H]1Cc2cccc(C(=O)O)c2OB1O [Example 13, 3-(2-[1,4]Diazepan-1-yl-acetylamino)-2-hydroxy-3,4-dihydro-2H-benzo[e][1,2]oxaborinine-8-carboxylic acid] | B (the MIC in the presence of between 8 and 32 μg/mL of a β-lactamase inhibitor) | 0.1 to 1 µM | < 0.1 µM | C (the MIC in the presence of <4 μg/mL of a β-lactamase inhibitor) | 10 to 100 µM | C (the MIC in the presence of <4 μg/mL of a β-lactamase inhibitor) | C (the MIC in the presence of <4 μg/mL of a β-lactamase inhibitor) | C (the MIC in the presence of <4 μg/mL of a β-lactamase inhibitor) | 1 to 10 µM | B (the MIC in the presence of between 8 and 32 μg/mL of a β-lactamase inhibitor) | 0.1 to 1 µM |
| CNC1CCN(CC(=O)N[C@H]2Cc3cccc(C(=O)O)c3OB2O)CC1 [Example 14, 2-Hydroxy-3-[2-(4-methylamino-piperidin-1-yl)-acetylamino]-3,4-dihydro-2H-benzo[e][1,2]oxaborinine-8-carboxylic acid] | B (the MIC in the presence of between 8 and 32 μg/mL of a β-lactamase inhibitor) | 0.1 to 1 µM | < 0.1 µM | C (the MIC in the presence of <4 μg/mL of a β-lactamase inhibitor) | 1 to 10 µM | C (the MIC in the presence of <4 μg/mL of a β-lactamase inhibitor) | C (the MIC in the presence of <4 μg/mL of a β-lactamase inhibitor) | C (the MIC in the presence of <4 μg/mL of a β-lactamase inhibitor) | 0.1 to 1 µM | B (the MIC in the presence of between 8 and 32 μg/mL of a β-lactamase inhibitor) | 0.1 to 1 µM |
| O=C(CN1CCN(c2nccs2)CC1)N[C@H]1Cc2cccc(C(=O)O)c2OB1O [Example 15, 2-Hydroxy-3-[2-(4-thiazol-2-yl-piperazin-1-yl)-acetylamino]-3,4-dihydro-2H-benzo[e][1,2]oxaborinine-8-carboxylic acid] | C (the MIC in the presence of <4 μg/mL of a β-lactamase inhibitor) | 0.1 to 1 µM | < 0.1 µM | C (the MIC in the presence of <4 μg/mL of a β-lactamase inhibitor) | 1 to 10 µM | C (the MIC in the presence of <4 μg/mL of a β-lactamase inhibitor) | C (the MIC in the presence of <4 μg/mL of a β-lactamase inhibitor) | C (the MIC in the presence of <4 μg/mL of a β-lactamase inhibitor) | 1 to 10 µM | B (the MIC in the presence of between 8 and 32 μg/mL of a β-lactamase inhibitor) | 0.1 to 1 µM |
| NCCN1CCN(CC(=O)N[C@H]2Cc3cccc(C(=O)O)c3OB2O)CC1 [Example 16, 3-{2-[4-(2-Amino-ethyl)-piperazin-1-yl]-acetylamino}-2-hydroxy-3,4-dihydro-2H-benzo[e][1,2]oxaborinine-8-carboxylic acid] | C (the MIC in the presence of <4 μg/mL of a β-lactamase inhibitor) | < 0.1 µM | < 0.1 µM | C (the MIC in the presence of <4 μg/mL of a β-lactamase inhibitor) | 1 to 10 µM | C (the MIC in the presence of <4 μg/mL of a β-lactamase inhibitor) | C (the MIC in the presence of <4 μg/mL of a β-lactamase inhibitor) | C (the MIC in the presence of <4 μg/mL of a β-lactamase inhibitor) | 0.1 to 1 µM | B (the MIC in the presence of between 8 and 32 μg/mL of a β-lactamase inhibitor) | < 0.1 µM |
| NCC(=O)N1CCN(CC(=O)N[C@H]2Cc3cccc(C(=O)O)c3OB2O)CC1 [Example 17, 3-{2-[4-(2-Amino-acetyl)-piperazin-1-yl]-acetylamino}-2-hydroxy-3,4-dihydro-2H-benzo[e][1,2]oxaborinine-8-carboxylic acid] | A (an MIC of the fixed β-lactam antibiotic in the presence of >32 μg/mL of a β-lactamase inhibitor) | < 0.1 µM | < 0.1 µM | B (the MIC in the presence of between 8 and 32 μg/mL of a β-lactamase inhibitor) | 1 to 10 µM | C (the MIC in the presence of <4 μg/mL of a β-lactamase inhibitor) | B (the MIC in the presence of between 8 and 32 μg/mL of a β-lactamase inhibitor) | C (the MIC in the presence of <4 μg/mL of a β-lactamase inhibitor) | 0.1 to 1 µM | A (an MIC of the fixed β-lactam antibiotic in the presence of >32 μg/mL of a β-lactamase inhibitor) | < 0.1 µM |
| O=C(CN1CCN(CCO)CC1)N[C@H]1Cc2cccc(C(=O)O)c2OB1O [Example 18, 2-Hydroxy-3-{2-[4-(2-hydroxy-ethyl)-piperazin-1-yl]-acetylamino}-3,4-dihydro-2H-benzo[e][1,2]oxaborinine-8-carboxylic acid] | B (the MIC in the presence of between 8 and 32 μg/mL of a β-lactamase inhibitor) | 0.1 to 1 µM | < 0.1 µM | C (the MIC in the presence of <4 μg/mL of a β-lactamase inhibitor) | 0.1 to 1 µM | C (the MIC in the presence of <4 μg/mL of a β-lactamase inhibitor) | B (the MIC in the presence of between 8 and 32 μg/mL of a β-lactamase inhibitor) | A (an MIC of the fixed β-lactam antibiotic in the presence of >32 μg/mL of a β-lactamase inhibitor) | 0.1 to 1 µM | B (the MIC in the presence of between 8 and 32 μg/mL of a β-lactamase inhibitor) | < 0.1 µM |
